Several values for one entry are separate records, joined by “and”; a condition that tells them apart may be missing. Identical values can stand only once.
Legend:
[1] = test system: European descent patients with CBZ-induced SJS/TEN; assay: HLA-A/B allele association with CBZ-induced SJS/TEN (case-control, sequence-based HLA typing); format: in vivo, human; conditions: for OR (95% CI) / Odds ratio (95% CI): CBZ-SJS/TEN cases vs European general population; for SJS/TEN N (%), allele carriers among cases / SCAR case N (%), allele carriers among cases: CBZ-SJS/TEN patients of European descent
Description: (§1) A total of 28 patients of European descent with CBZ-SJS/TEN were enrolled in this study. SJS/TEN is characterized by a rapidly developing exanthema of purpuric macules and target-like lesions with skin detachment accompanied by hemorrhagic-erosive mucosal involvement. Skin detachment in SJS patients affects less than 10% of body surface area (BSA), while TEN patients have skin detachment greater than 30% of BSA. Detachment of 10-30% is defined as SJS/TEN-overlap, reflecting a continuum of severity variants of one disease entity. Patients with CBZ-DRESS were also enrolled for comparison. HLA-A and HLA-B genotypes of patients with CBZ-SJS/TEN were determined by SeCore HLA sequence-based typing (Invitrogen, Life Technologies, USA). Furthermore, the HLA genotypes for patients with CBZ-DRESS and general population (the control group) were also determined. Statistical analyses were performed using SPSS 21.0 (IBM, Armonk, N.Y.). Comparisons of genotype frequencies between groups were performed using Fisher exact tests. Differences were considered statistically significant at p-values of less than 0.05.

[2] = test system: patients with CBZ-DRESS, European descent; assay: HLA allele association with CBZ-induced DRESS (case-control, HLA typing); format: in vivo, human; conditions: for Odds ratio (95% CI): CBZ-DRESS cases vs European general population; for SCAR case N (%), allele carriers among cases: CBZ-DRESS patients
Description: as §1

Question: Which results are given for NC(=O)N1c2ccccc2C=Cc2ccccc21 [CBZ, Carbamazepine]?
Answer: OR (95% CI) ([1]; HLA-A*01:01): 2.2 (1.1-4.7); SJS/TEN N (%), allele carriers among cases ([1]; HLA-A*01:01): 14/28 (50.0%); OR (95% CI) ([1]; HLA-A*02:01): 0.5 (0.2-1.0); SJS/TEN N (%), allele carriers among cases ([1]; HLA-A*02:01): 11/28 (39.29%); OR (95% CI) ([1]; HLA-A*24:02): 0.6 (0.2-1.8); SJS/TEN N (%), allele carriers among cases ([1]; HLA-A*24:02): 3/28 (10.71%); OR (95% CI) ([1]; HLA-A*26:01): 3.5 (1.3-9.0); SJS/TEN N (%), allele carriers among cases ([1]; HLA-A*26:01): 5/28 (17.86%); OR (95% CI) ([1]; HLA-A*31:01): 3.5 (1.2-10.2) and 3.6 (1.2-10.3); Sensitivity (%) ([1]; HLA-A*31:01 as marker of CBZ-SJS/TEN): 14.29%; OR (95% CI) ([1]; HLA-B*08:01): 1.5 (0.7-3.5); SJS/TEN N (%), allele carriers among cases ([1]; HLA-B*08:01): 8/28 (28.57%); OR (95% CI) ([1]; HLA-B*13:02): 1.8 (0.5-6.0); SJS/TEN N (%), allele carriers among cases ([1]; HLA-B*13:02): 3/28 (10.71%); OR (95% CI) ([1]; HLA-B*15:02): 44.4 (2.2-879.5); SJS/TEN N (%), allele carriers among cases ([1]; HLA-B*15:02): 0/28 (0%); OR (95% CI) ([1]; HLA-B*18:01): 1.1 (0.3-3.8); SJS/TEN N (%), allele carriers among cases ([1]; HLA-B*18:01): 3/28 (10.71%); Sensitivity (%) ([1]; HLA-B*38:01 as marker of CBZ-SJS/TEN): 14.29%; OR (95% CI) ([1]; HLA-B*44:02): 0.2 (0.0-1.4); SJS/TEN N (%), allele carriers among cases ([1]; HLA-B*44:02): 1/28 (3.57%); OR (95% CI) ([1]; HLA-B*44:03): 1.9 (0.6-5.4); SJS/TEN N (%), allele carriers among cases ([1]; HLA-B*44:03): 4/28 (14.29%); Odds ratio (95% CI) ([1]; HLA-B*57:01/A*31:01/B*38:01): 9.3 (4.4-19.9); SCAR case N (%), allele carriers among cases ([1]; HLA-B*57:01/A*31:01/B*38:01): (60.71%); Sensitivity (%) ([1]; HLA-B*57:01/A*31:01/B*38:01 as marker of CBZ-SJS/TEN): 60.71%; Odds ratio (95% CI) ([1]; HLA-B*57:01/A*31:01): 8.0 (3.8-16.7); SCAR case N (%), allele carriers among cases ([1]; HLA-B*57:01/A*31:01): (50.00%); Sensitivity (%) ([1]; HLA-B*57:01/A*31:01 as marker of CBZ-SJS/TEN): 50.00%; Odds ratio (95% CI) ([1]; HLA-B*57:01/B*38:01): 8.6 (4.1-18.1); SCAR case N (%), allele carriers among cases ([1]; HLA-B*57:01/B*38:01): (50.00%); Sensitivity (%) ([1]; HLA-B*57:01/B*38:01 as marker of CBZ-SJS/TEN): 50.00%; Sensitivity (%) ([1]; HLA-B*57:01 as marker of CBZ-SJS/TEN): 39.29%; Odds ratio (95% CI) ([2]; HLA-A*31:01): 49.9 (12.9-193.6); Sensitivity (%) ([2]; HLA-A*31:01 as marker of CBZ-DRESS): 70.00%; Odds ratio (95% CI) ([2]; HLA-B*38:01): 1.2 (0.1-21.0); SCAR case N (%), allele carriers among cases ([2]; HLA-B*38:01): (0%); Sensitivity (%) ([2]; HLA-B*38:01 as marker of CBZ-DRESS): 0%; Odds ratio (95% CI) ([2]; HLA-B*57:01/A*31:01/B*38:01): 14.1 (3.6-54.5); SCAR case N (%), allele carriers among cases ([2]; HLA-B*57:01/A*31:01/B*38:01): (70.00%); Sensitivity (%) ([2]; HLA-B*57:01/A*31:01/B*38:01 as marker of CBZ-DRESS): 70.00%; Odds ratio (95% CI) ([2]; HLA-B*57:01/A*31:01): 18.6 (4.8-71.9); SCAR case N (%), allele carriers among cases ([2]; HLA-B*57:01/A*31:01): (70.00%); Sensitivity (%) ([2]; HLA-B*57:01/A*31:01 as marker of CBZ-DRESS): 70.00%; Odds ratio (95% CI) ([2]; HLA-B*57:01/B*38:01): 0.4 (0-7.0); SCAR case N (%), allele carriers among cases ([2]; HLA-B*57:01/B*38:01): (0%); Sensitivity (%) ([2]; HLA-B*57:01/B*38:01 as marker of CBZ-DRESS): 0%; Odds ratio (95% CI) ([2]; HLA-B*57:01): 0.7 (0.0-11.3); SCAR case N (%), allele carriers among cases ([2]; HLA-B*57:01): (0%); Sensitivity (%) ([2]; HLA-B*57:01 as marker of CBZ-DRESS): 0%

Reference: patent US20220177968A1, “METHODS FOR DETECTING OR REDUCING THE INCIDENCE OF ADVERSE DRUG REACTIONS” (CHANG GUNG MEMORIAL HOSPITAL, LINKOU, priority 2019, published 2022)
